Key:
Assay type in all cases: cell-based
[1] = tested on: MYC and C1GALT1; assay: Immunoblots of MYC and C1GALT1 levels under inhibitor treatment; conditions: 22Rv1-M4 and galectin-4-expressing 22Rv1 and LNCaP cells; 24 h
Source text: Data are expressed as mean±SEM. *P<0.05, **P<0.01, ***P<0.001 (unpaired t-test, two-tail).

[2] = tested on: HER2/3 phosphorylation, AR, and PSA expression; assay: Immunoblots of HER2/3 phosphorylation, AR and PSA expression after galectin-4 induction
[3] = tested on: LNCaP-tetO-Gal4 and 22Rv1-tetO-Gal4 cells; assay: Lectin binding assay (flow cytometry) of cell surface glycans after glycosylation inhibitor treatment
Experimental: FIG. 8A to FIG. 8C show the characterization of glycophenotype in prostate cancer cells. FIG. 8A and FIG. 8B show lectin binding assay of LNCaP-tetO-Gal4 (A) and 22Rv1-tetO-Gal4 (B) cells treated with 3 μM Swainsonine or 4 mM Benzyl-α-GalNAc for 2 day following galectin-4 induction by doxycycline. […] Below, the mean fluorescence intensity (MFI) values from triplicates. Data are expressed as mean±SEM. *P<0.05, **P<0.01, ***P<0.001 (unpaired t-test, two-tail).
To profile cell surface glycans, cells were detached by Accutase (Innovative Cell Technologies, San Diego, CA) treatment, washed with PBS for three times, and suspended in Carbo-Free Blocking Solution (VECTOR, Burlingame, CA). Cells were incubated with biotin-conjugated lectins, PHA-L (2 μg/mL), PNA (10 μg/mL), MALII (5 μg/mL), Jacalin (5 μg/mL, VECTOR), and galectin-4 (5 μg/mL), or BSA as a control followed by APC-labeled streptavidin. After incubation for 30 min on ice, cells were analyzed on an Accuri C6 flow cytometer (BD Biosciences, Taiwan). Galectin-4 (R&D Systems, Minneapolis, MN) and BSA were biotinylated using Lightning-Link Rapid Conjugation System (Innova Biosciences, Cambridge, UK) following the manufacturer's instructions.

[4] = tested on: SOX9 expression; assay: Immunoblots of SOX9 expression in 22Rv1-M4 cells; conditions: 3 μM Swainsonine or 4 mM Benzyl-α-GalNAc for 2 days
[5] = tested on: LNCaP-CR4 cells; assay: Colony-formation assay under enzalutamide treatment; conditions: LNCaP-CR4 vs LNCaP; 10 days
[6] = 4 mM Benzyl-α-GalNAc for 2 day, PCa cells

SMILES: N#CC(=C(N)Sc1ccc(N)cc1)c1ccccc1C(F)(F)F [MEK1/2 inhibitor]
- induction of MYC and C1GALT1 compared to vehicle treatment [1]: blocked

SMILES: CC(=O)N[C@H]1[C@@H](OCc2ccccc2)O[C@H](CO)[C@H](O)[C@@H]1O [benzyl-α-GalNAc]
- galectin-4-mediated activation of HER2/3 and AR signaling ([2]; 4 mM Benzyl-α-GalNAc for 2 day, galectin-4 expressing LNCaP and 22Rv1 cells): blocked
- galectin-4 activity ([2]; PCa cells): suppressed
- binding of treated cells to MALII [3, 6]: reduced
- binding of treated cells to PNA [3, 6]: increased
- biosynthesis of α2,3-sialyl-T antigen ([3]; PCa cells): significantly impaired
- SOX9 expression [4]: significantly inhibited

SMILES: CNC(=O)c1ccc(N2C(=S)N(c3ccc(C#N)c(C(F)(F)F)c3)C(=O)C2(C)C)cc1F [enzalutamide]
- clonogenic growth of LNCaP-CR4 cells under enzalutamide [5]: resistance

SMILES: O[C@H]1[C@H]2[C@H](O)CCCN2C[C@H]1O [swainsonine]
- HER2/3 phosphorylation and induction of AR and PSA protein expression ([2]; 3 μM Swainsonine for 2 day, galectin-4 expressing LNCaP and 22Rv1 cells): did not affect
- PHA-L staining for N-glycans ([3]; 3 μM Swainsonine for 2 day following doxycycline-mediated galectin-4 induction, LNCaP and 22Rv1 cells): decreased
- SOX9 expression [4]: did not affect

Reference: patent US12359259B2, “Biomarkers for predicting prostate cancer progression” (ACADEMIA SINICA, priority 2018, dated 2025)
